# Structures can show the parent of a compound that is named as a salt.
# Columns and labels:
# [1] = 72 h
# [2] = following a single 25 mg dose of TAF; ref 24 (Custodio and colleagues); cited from earlier work
# [3] = human, 244 days
# [4] = human, 24 h
# [5] = for number of freeze-thaw cycles for which stable: plasma, -80°C
# [6] = ex vivo, data not shown
# [7] = data not shown
# [8] = Injection matrix stability; settings: 72 h at 4°C, compared to the previously run curve; data not shown
# [9] = Plasma concentrations in mice after rectal enema dosing of TAF or CMX157; assay type: in vivo
# [10] = cited from earlier work
smiles,measurement,setting,value
"C[C@H](Cn1cnc2c(N)ncnc21)OCP(=O)(O)O [TFV, tenofovir]",injection matrix stability %DIF,[1],−8.44-5.57%
same,Cmax,[2],9.5 ng/mL
same,long term storage stability %DIF,[3],≤ ±10.5%
same,sample matrix stability %DIF,[4],-14.5-8.45%
same,freeze-thaw stability %DIF,[5]; human,-15.2-3.04%
same,number of freeze-thaw cycles for which stable,[5],three
"CC(C)OC(=O)[C@H](C)N[P@](=O)(CO[C@H](C)Cn1cnc2c(N)ncnc21)Oc1ccccc1 [TAF, tenofovir alafenamide fumarate]",time up to which stable in whole blood,[6],up to 1 h
same,stability in mouse plasma as compared to human matrices,[7],less stable
same,injection matrix stability,[8],unstable
same,plasma TAF/TFV ratio,"[9]; colonic administration of TAF, mice",< 1
same,time for conversion of TAF into TFV,[9]; mice dosed rectally with TAF,less than 15 minutes
same,plasma samples with detectable systemic TAF,"[9]; mice, rectal TAF",60%
same,number of freeze-thaw cycles for which stable,[5],two
"CC(C)OC(=O)OCOP(=O)(CO[C@H](C)Cn1cnc2c(N)ncnc21)OCOC(=O)OC(C)C [TDF, tenofovir disoproxil fumarate]",increase in TFV bioavailability by prodrug administration,[10],25%
"CCCCCCCCCCCCCCCCOCCCOP(=O)(O)CO[C@H](C)Cn1cnc2c(N)ncnc21 [CMX157, hexadecyloxypropyl tenofovir]",time up to which stable in whole blood,[6],≤ 8 h
